Test results as given in PubChem BioAssay (NCI).
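Compound exposure: 48 hours, 5 concentrations, 96-well plates. The concentration for full growth arrest is given as TGI.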

How the values were obtained:
Experiment in all cases: NCI tumour cell line growth inhibition, 48 h
SN12K1 renal = test system: SN12K1 renal
P388/ADR leukemia = test system: P388/ADR leukemia
RXF-631 renal = test system: RXF-631 renal
P388 leukemia = test system: P388 leukemia

C[C@H](CN1CC(=O)NC(=O)C1)N1CC(=O)NC(=O)C1
TGI (SN12K1 renal): > 100 µM | TGI (P388/ADR leukemia): > 96.4 µM

Nc1nn(CC(O)CO)c(=O)s1 (centres undefined)
TGI (RXF-631 renal): > 100 µM

N/C(=N\N=C\c1cc2c(cc1Cl)OCO2)NO
TGI (SN12K1 renal): > 100 µM | TGI (P388/ADR leukemia): > 81.3 µM | TGI (P388 leukemia): > 91.9 µM

C[C@H](N)C(=O)N[C@@H]1[C@H]2C(=C(O)C[C@@H](O)[C@@H]2O)C(=O)O[C@@H]1C
TGI (SN12K1 renal): > 100 µM | TGI (P388/ADR leukemia): > 100 µM | TGI (P388 leukemia): > 100 µM
